Reference: article PMC9487510, “A Novel Oral GyrB/ParE Dual Binding Inhibitor Effective against Multidrug-Resistant Neisseria gonorrhoeae and Other High-Threat Pathogens” (Antimicrobial Agents and Chemotherapy, 2022)
In brackets after ≈: the same amount, converted by molar mass. Read-outs that look alike come from different tables or passages of the source.

Tests used:
[1] = tested on: N. gonorrhoeae clinical isolates; test: MIC, agar dilution (CLSI); format: cell-based, Neisseria gonorrhoeae; details: Neisseria gonorrhoeae; for MIC: read-out: MIC
[2] = tested on: B. anthracis; test: microbe, parasite or virus in culture; format: cell-based; details: for MIC: Bacillus anthracis
[3] = Serum protein binding; format: in vitro ADME
[4] = molecular target: hERG K+ channel (Homo sapiens, UniProt Q12809); test: hERG inhibition, whole-cell patch clamp in HEK-293 cells; details: pH 7.4
[5] = tested on: MRSA; format: cell-based, S. aureus; details: at 1× MIC; resistance not observed; data not shown
[6] = Liver microsome stability, mouse; format: in vitro ADME; details: male, CD-1, mouse, liver microsomes, pH 7.4
Procedure: Liver microsome stability assays were performed by BioDuro Inc. Human and mouse (CD-1 male) liver microsomes were used. […] Next, 50 μL of reaction buffer was added to solution and mixed via pipetting up and down 6 times. At each time point of 0, 30, and 60 min, an aliquot of 20 μL was removed from each tube. Liver microsomes (LM) working solution was prepared in 0.05 M phosphate reaction buffer (pH = 7.4) to a final concentration of 1.27 mg/mL. NADPH solution was prepared in 0.05 M phosphate buffer to afford a 5 mM buffer solution. […] After vortexing and incubating for 5 min (37°C), 50 μL of NADPH solution was added and mixed via pipetting. At each time point of 0, 5, 15, 30, and 60 min, an aliquot of 20 μL was removed from each tube. Next, 250 μL of quenching solution was aliquoted to quench the reaction, which was then vortexed for 1 min and placed on ice for 40 min. After centrifugation at 4,000 × g for 15 min, 100 μL of supernatant was transferred using a multichannel pipette to 0.65-mL tubes. Samples were diluted with MeOH: H2O (1:1) as necessary. Samples were analyzed by high-pressure liquid chromatography coupled to tandem mass spectrometry (LC/MS/MS) performed on a Sciex Applied Biosystems Qtrap 4000 triple-quadrupole mass spectrometer coupled to a Shimadzu HPLC system to quantify the remaining compound. Data were processed using Analyst software (version 1.4.2; Applied Biosystems Sciex). […] Metabolite identification on the microsomal extracts was performed using a Q-Exactive HRMS coupled with an Ultimate 3000 HPLC system and a Kinetix C18 2.1 × 50-mm 2.6-μm HPLC column.

Chain of hERG K+ channel (Q12809 whole entry): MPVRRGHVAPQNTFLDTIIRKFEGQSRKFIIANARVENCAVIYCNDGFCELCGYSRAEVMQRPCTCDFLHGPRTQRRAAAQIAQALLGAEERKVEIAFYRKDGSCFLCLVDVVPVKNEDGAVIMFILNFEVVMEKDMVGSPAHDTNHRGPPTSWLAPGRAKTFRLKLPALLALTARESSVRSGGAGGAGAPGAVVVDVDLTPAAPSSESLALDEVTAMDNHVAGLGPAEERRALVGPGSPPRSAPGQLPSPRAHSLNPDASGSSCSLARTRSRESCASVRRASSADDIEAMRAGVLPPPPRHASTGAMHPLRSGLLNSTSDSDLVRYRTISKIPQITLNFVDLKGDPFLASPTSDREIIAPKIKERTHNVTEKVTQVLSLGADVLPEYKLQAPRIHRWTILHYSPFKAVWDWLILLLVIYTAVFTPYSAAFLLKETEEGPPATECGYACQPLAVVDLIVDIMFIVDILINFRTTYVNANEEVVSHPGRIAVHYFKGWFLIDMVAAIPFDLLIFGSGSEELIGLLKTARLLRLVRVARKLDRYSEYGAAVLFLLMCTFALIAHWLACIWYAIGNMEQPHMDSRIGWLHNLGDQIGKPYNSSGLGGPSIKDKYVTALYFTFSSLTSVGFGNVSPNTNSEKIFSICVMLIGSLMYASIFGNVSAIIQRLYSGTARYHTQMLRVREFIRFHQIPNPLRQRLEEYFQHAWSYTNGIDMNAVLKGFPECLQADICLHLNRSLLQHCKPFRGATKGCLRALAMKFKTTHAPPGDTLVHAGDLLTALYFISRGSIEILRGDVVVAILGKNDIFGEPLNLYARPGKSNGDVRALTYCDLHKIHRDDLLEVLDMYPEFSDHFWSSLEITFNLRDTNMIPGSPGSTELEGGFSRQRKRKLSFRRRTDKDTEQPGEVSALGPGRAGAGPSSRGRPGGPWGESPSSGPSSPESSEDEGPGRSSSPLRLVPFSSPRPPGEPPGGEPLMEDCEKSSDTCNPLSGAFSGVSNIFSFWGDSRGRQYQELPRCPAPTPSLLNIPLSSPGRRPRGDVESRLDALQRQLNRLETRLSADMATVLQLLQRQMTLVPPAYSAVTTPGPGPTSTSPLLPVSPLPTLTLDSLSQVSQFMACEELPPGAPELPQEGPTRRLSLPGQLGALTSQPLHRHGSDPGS

CNc1cc(F)cc2c1[nH]c1nc(Oc3cnc(C)nc3)nc(N3CCC4(CC3)CO[C@@H](CO)C4)c12 [JSF-2414]
MIC ([1]; strain CDC51 (GCREF2012 049)): 3.9 ng/mL (≈ 0.0079 µM)
MIC ([1]; strain CDC52 (GCREF2012 050)): 3.9 ng/mL (≈ 0.0079 µM)
MIC ([1]; strain CDC53 (GCREF2012 051)): 7.8 ng/mL (≈ 0.0158 µM)
MIC ([1]; strain CDC54 (GCREF2012 052)): 3.9 ng/mL (≈ 0.0079 µM)
MIC ([1]; strain CDC55 (GCREF2013 001)): 7.8 ng/mL (≈ 0.0158 µM)
MIC ([1]; strain CDC56 (GCREF2013 002)): 3.9 ng/mL (≈ 0.0079 µM)
MIC ([1]; strain CDC57 (GCREF2013 003)): 3.9 ng/mL (≈ 0.0079 µM)
MIC ([1]; strain CDC58 (GCREF2013 004)): 2 ng/mL (≈ 0.00405 µM)
MIC ([1]; strain CDC59 (GCREF2013 044)): 2 ng/mL (≈ 0.00405 µM)
MIC ([1]; strain CDC60 (GCREF2013 005)): 7.8 ng/mL (≈ 0.0158 µM)
MIC ([1]; strain CDC61 (GCREF2013 006)): 7.8 ng/mL (≈ 0.0158 µM)
MIC ([1]; strain CDC62 (GCREF2013 007)): 16 ng/mL (≈ 0.0324 µM)
MIC ([1]; strain CDC63 (GCREF2013 008)): 7.8 ng/mL (≈ 0.0158 µM)
MIC ([1]; strain CDC64 (GCREF2013 009)): 16 ng/mL (≈ 0.0324 µM)
MIC ([1]; strain CDC65 (GCREF2013 010)): 7.8 ng/mL (≈ 0.0158 µM)
MIC ([1]; strain CDC66 (GCREF2013 011)): 16 ng/mL (≈ 0.0324 µM)
MIC ([1]; strain CDC67 (GCREF2013 014)): 7.8 ng/mL (≈ 0.0158 µM)
MIC ([1]; strain CDC68 (GCREF2013 016)): 2 ng/mL (≈ 0.00405 µM)
MIC ([1]; strain CDC69 (GCREF2013 017)): 2 ng/mL (≈ 0.00405 µM)
MIC ([1]; strain CDC70 (GCREF2013 018)): 3.9 ng/mL (≈ 0.0079 µM)
MIC ([1]; strain CDC71 (GCREF2013 019)): 16 ng/mL (≈ 0.0324 µM)
MIC ([1]; strain CDC72 (GCREF2013 020)): 7.8 ng/mL (≈ 0.0158 µM)
MIC ([1]; strain CDC73 (GCREF2013 021)): 16 ng/mL (≈ 0.0324 µM)
MIC ([1]; strain CDC74 (GCREF2013 022)): 16 ng/mL (≈ 0.0324 µM)
MIC ([1]; strain CDC75 (GCREF2013 023)): 7.8 ng/mL (≈ 0.0158 µM)
MIC ([1]; strain CDC76 (GCREF2013 024)): 7.8 ng/mL (≈ 0.0158 µM)
MIC ([1]; strain CDC77 (GCREF2013 025)): 7.8 ng/mL (≈ 0.0158 µM)
MIC ([1]; strain CDC78 (GCREF2013 026)): 0.5 ng/mL (≈ 0.00101 µM)
MIC ([1]; strain CDC79 (GCREF2013 027)): 3.9 ng/mL (≈ 0.0079 µM)
MIC ([1]; strain CDC80 (GCREF2013 028)): 3.9 ng/mL (≈ 0.0079 µM)
MIC ([1]; strain CDC81 (GCREF2013 029)): 3.9 ng/mL (≈ 0.0079 µM)
MIC ([1]; strain CDC82 (GCREF2013 031)): 7.8 ng/mL (≈ 0.0158 µM)
MIC ([1]; strain CDC83 (GCREF2013 032)): 16 ng/mL (≈ 0.0324 µM)
MIC ([1]; strain CDC84 (GCREF2013 033)): 7.8 ng/mL (≈ 0.0158 µM)
MIC ([1]; strain CDC86 (GCREF2013 035)): 7.8 ng/mL (≈ 0.0158 µM)
MIC ([1]; strain CDC87 (GCREF2013 036)): 3.9 ng/mL (≈ 0.0079 µM)
MIC ([1]; strain CDC88 (GCREF2013 037)): 7.8 ng/mL (≈ 0.0158 µM)
MIC ([1]; strain CDC89 (GCREF2013 038)): 3.9 ng/mL (≈ 0.0079 µM)
MIC ([1]; strain CDC90 (GCREF2013 039)): 7.8 ng/mL (≈ 0.0158 µM)
MIC ([1]; strain CDC91 (GCREF2013 040)): 7.8 ng/mL (≈ 0.0158 µM)
MIC ([1]; strain CDC92 (GCREF2013 041)): 3.9 ng/mL (≈ 0.0079 µM)
MIC ([1]; strain CDC93 (GCREF2013 042)): 3.9 ng/mL (≈ 0.0079 µM)
MIC ([1]; strain CDC94 (GCREF2013 043)): 7.8 ng/mL (≈ 0.0158 µM)
MIC ([1]; strain CDC95 (GCREF2013 045)): 7.8 ng/mL (≈ 0.0158 µM)
MIC ([1]; strain CDC96 (GCREF2013 046)): 2 ng/mL (≈ 0.00405 µM)
MIC ([1]; strain CDC97 (GCREF2013 047)): 3.9 ng/mL (≈ 0.0079 µM)
MIC ([1]; strain CDC98 (GCREF2013 048)): 7.8 ng/mL (≈ 0.0158 µM)
MIC ([1]; strain CDC99 (GCREF2013 012)): 7.8 ng/mL (≈ 0.0158 µM)
MIC ([1]; strain CDC100 (GCREF2013 015)): 3.9 ng/mL (≈ 0.0079 µM)
MIC50 ([1]; 96 clinical isolates, read-out: MIC50): 3.9 ng/mL (≈ 0.0079 µM)
MIC90 ([1]; 96 clinical isolates, read-out: MIC90): 7.8 ng/mL (≈ 0.0158 µM)
MIC ([2]; strain Ames): 0.049 µg/mL (≈ 0.0993 µM)
MIC ([2]; strain Vollum V1B): 0.098 µg/mL (≈ 0.199 µM)
MIC range ([2]; N = 2): 0.049 to 0.098 µg/mL
fraction unbound [3]: 0.012
IC50 at 3 min [4]: > 50 µM
spontaneous resistance frequency [5]: < 5.0 × 10^−9
microsomal CLint at 1 μM ([6]; read-out: MLM Clint): 11.9 µL/min/mg
half-life at 1 μM ([6]; read-out: MLM t1/2): 58.2 min
